Structures can show the parent of a compound that is named as a salt. Where two headings read alike, the source gives them in different places.
Assays:
[1] = molecular target: T1, Porcine DPP-IV (Sus scrofa, UniProt P22411); test: Assay of DPP-IV enzyme inhibitory activity (spectrophotometric, Gly-Pro-pNA cleavage); type: biochemical
T1 construct: purchased Sigma-Aldrich Germany

[2] = In-vitro free radical scavenging activity using DPPH free radical; settings: 30° C., 30 minutes, 515 nm
Excerpt: Free Radical Scavenging Activity:
To determine the in-vitro free radical scavenging activity of compounds of general formula-I on 2,2,-diphenyl-1-picrylhydrazyl (DPPH)radical (Ref: W. Brand-Williams, M. E. Cuvelier, C. Berset “Use of a free radical method to evaluate antioxidant activity”, Lebensm.- Wiss.u.Technol.,1995,28,Nr.1:25-30).
To evaluate the free radical scavenging activity of compounds they are allowed to react with stable radical DPPH*. In its radical form, DPPH* absorbed at the characteristic wave length of 515 nm, but upon reduction by an antioxidant or radical scavenger (AH), the absorption disappears.
10^−4M solution of DPPH* was prepared in methanol.
Various concentrations (10 mM, 1 mM, 0.5 mM, 0.25 mM and 0.125 mM) of drug solutions were prepared in methanol.
900 μl of DPPH radical solution was added to an eppendorf tube. To it was added 100 μl of methanol.
900 μl of DPPH radical solution was added to an eppendorf tube. To it was added 100 μl of various concentrations of drug solutions in methanol.
The absorbance of control and test samples was recorded after incubation at 30° C. for 30 minutes, at 515 nm taking methanol as blank.
The percent antioxidant activity was calculated according to the formula:
% Antioxidant activity=100−[O.D of test sample/O.D of control*100]

[3] = Porcine DPP-IV, Gly-Pro-pNA substrate, 30° C., mean ± SD of three experiments except compound Nos. 133 & 139, read-out: IC50 (μM) Mean ± SD, inhibitory activity on DPP-IV enzyme activity

T1 sequence (P22411 whole entry): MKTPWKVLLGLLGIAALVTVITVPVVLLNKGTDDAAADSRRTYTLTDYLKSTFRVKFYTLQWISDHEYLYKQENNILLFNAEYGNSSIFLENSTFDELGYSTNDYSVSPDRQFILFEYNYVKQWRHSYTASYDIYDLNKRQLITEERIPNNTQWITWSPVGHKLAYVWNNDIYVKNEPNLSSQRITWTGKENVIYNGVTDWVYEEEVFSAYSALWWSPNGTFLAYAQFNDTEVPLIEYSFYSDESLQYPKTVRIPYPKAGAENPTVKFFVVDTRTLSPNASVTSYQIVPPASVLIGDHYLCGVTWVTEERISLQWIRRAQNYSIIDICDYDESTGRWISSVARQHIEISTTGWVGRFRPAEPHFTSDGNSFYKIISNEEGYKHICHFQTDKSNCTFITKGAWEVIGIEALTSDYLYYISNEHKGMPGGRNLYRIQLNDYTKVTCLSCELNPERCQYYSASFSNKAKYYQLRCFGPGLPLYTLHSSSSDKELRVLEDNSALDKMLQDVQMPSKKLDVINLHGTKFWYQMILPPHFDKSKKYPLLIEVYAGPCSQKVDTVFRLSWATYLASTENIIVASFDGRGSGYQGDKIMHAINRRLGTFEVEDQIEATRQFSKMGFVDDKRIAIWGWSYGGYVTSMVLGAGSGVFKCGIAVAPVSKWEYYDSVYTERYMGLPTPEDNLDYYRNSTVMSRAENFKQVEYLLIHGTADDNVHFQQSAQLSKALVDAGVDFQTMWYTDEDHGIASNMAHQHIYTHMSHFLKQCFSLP

Row | SMILES | IC50 [1, 3] | % Activity (antioxidant, DPPH) ([2]; Concentration 12.5 μM) | % Activity (antioxidant, DPPH) ([2]; Concentration 25 μM) | % Activity (antioxidant, DPPH) ([2]; Concentration 50 μM) | % Activity (antioxidant, DPPH) ([2]; Concentration 100 μM) | % Activity (antioxidant, DPPH) ([2]; Concentration 100 μM, 100 µM) | IC50 ([1]; read-out: dipeptidyl peptidase-IV inhibitory IC50's in the range)
1 | CCNN(CC(=O)N1CSCC1C#N)C1CCN(CC(=O)Nc2ccc(Cl)cn2)CC1 (stereo not drawn) [Compound No. 101, 3-[1-oxo-2-[1-(1-(2-oxo-2-(5-chloropyridin-2-yl)aminoethyl)piperidin-4-yl)]-2 ethylhydrazino]ethyl-4-cyanothiazolidine tris-hydrochloride] | 0.488 ± 0.017 µM | 20.41% | 31.00% | 32.19% | 61.15% | – | –
2 | COc1ccc(S(=O)(=O)NC2CCC(N(N)CC(=O)N3CSCC3C#N)CC2)cc1.O=C(O)C(F)(F)F (stereo not drawn) [Compound No. 92, 3-[1-oxo-2-[1-(1-(4-methoxyphenylsulphonyl)aminocyclohexan-4-yl)]hydrazino]ethyl-4-cyanothiazolidine trifluoroacetate] | 1.33 ± 0.124 µM | 10.07% | 30.36% | 58.48% | 78.77% | – | –
3 | CS(=O)(=O)N1CCC(N(N)CC(=O)N2CSCC2C#N)CC1.O=C(O)C(F)(F)F (stereo not drawn) [Compound No. 86, 3-[1-oxo-2-[1-(1-(methylsulphonyl)-piperidin-4-yl)]hydrazino]ethyl-4-cyanothiazolidine trifluoroacetate] | 1.46 ± 0.22 µM | 22.72% | 45.27% | 70.18% | 88.14% | – | –
4 | N#CC1CSCN1C(=O)CN(N)C1CCC(NCc2ccc(F)cc2)CC1 (stereo not drawn) [Compound No. 93, 3-[1-oxo-2-[1-(1-(4-fluorobenzyl)aminocyclohexan-4-yl)]hydrazino]ethyl-4-cyanothiazolidine bis-trifluoroacetate] | 5.56 ± 0.18 µM | 15.18% | 28.08% | 44.13% | 64.24% | – | –
5 | CC1CCC(N(N)CC(=O)N2CSCC2C#N)CC1.O=C(O)C(F)(F)F (stereo not drawn) [Compound No. 29, 3-[1-Oxo-2-((1-(4-methyl)cyclohexyl)-hydrazino)]ethyl-4-cyano thiazolidine trifluoroacetate] | 0.8 ± 0.15 µM | – | – | – | – | 93.70% | –
6 | CCNN(CC(=O)N1CSCC1C#N)C1CCN(S(C)(=O)=O)CC1.O=C(O)C(F)(F)F (stereo not drawn) [Compound No. 88, 3-[1-oxo-2-[1-(1-(methylsulphonyl)-piperidin-4-yl)-2-ethyl]hydrazino]ethyl-4-cyanothiazolidine trifluoroacetate] | 3.75 ± 0.101 µM | 14.49% | 44.12% | 56.11% | 69.34% | – | –
7 | CCNN(CC(=O)N1CSCC1C#N)C1CCN(C(=O)N2CCOCC2)CC1.O=C(O)C(F)(F)F (stereo not drawn) [Compound No. 89, 3-[1-oxo-2-[1-(1-(morpholinocarbonyl)-piperidin-4-yl)-2-ethyl]hydrazino]ethyl-4-cyanothiazolidine trifluoroacetate] | 0.985 ± 0.086 µM | 10.37% | 20.74% | 36.94% | 55.07% | – | –
8 | CC1CCC(N(N)CC(=O)N2CSCC2C#N)CC1.O=C(O)C(F)(F)F (stereo not drawn) [Compound No. 25, 3-[1-Oxo-2-((1-(4-methyl)cyclohexyl)hydrazino)]ethyl-4-cyano thiazolidine trifluoroacetate] | 0.67 ± 0.03 µM | – | – | – | – | 95.66% | –
9 | CC(C)NN(CC(=O)N1CSCC1C#N)C1CCN(S(C)(=O)=O)CC1.O=C(O)C(F)(F)F (stereo not drawn) [Compound No. 87, 3-[1-oxo-2-[1-(1 (methylsulphonyl)-piperidin-4-yl)-2-isopropyl]hydrazino]ethyl-4-cyanothiazolidine trifluoroacetate] | 18.3 ± 3.2 µM | 12.87% | 30.88% | 44.03% | 55.94% | – | –
10 | N#CC1CSCN1C(=O)CN(N)C1CCN(CC(=O)Nc2ncc(Br)s2)CC1 (stereo not drawn) [compound 117, 3-[1-oxo-2-(1-(1-(2-oxo-2-(5-bromothiazol-2-yl)aminoethyl)piperidine-4-yl))hydrazino]ethyl-4-cyanothiazolidine, tris-trifluoroacetate] | 0.226 ± 0.005 µM | – | – | – | 53.44% | – | –
11 | N#CC1CSCN1C(=O)CN(N)C1CCCC1.O=C(O)C(F)(F)F (stereo not drawn) [Compound No. 19, 3-[1-Oxo-2-((1-Cyclopentyl)-hydrazino)]ethyl-4-cyano thiazolidine trifluoroacetate] | 1.46 ± 0.16 µM | – | – | – | 94.55% | – | –
12 | N#Cc1ccc(NC(=O)CN2CCC(N(N)CC(=O)N3CSCC3C#N)CC2)cc1 (stereo not drawn) [Compound No. 99, 3-[1-oxo-2-[1-(1-(2-oxo-2-(4-cyanophenyl)aminoethyl)piperidin-4-yl)]hydrazino]ethyl-4-cyanothiazolidine bis-trifluoroacetate] | 0.2 ± 0.04 µM | 15.12% | 24.87% | 39.13% | 53.33% | – | 0.088 to 0.25 µM
13 | N#CC1CSCN1C(=O)CN(N)C1CCN(Cc2ccc(F)cc2)CC1 (stereo not drawn) [Compound No. 94, 3-[1-oxo-2-[1-(1-(4-fluorobenzyl)-piperidin-4-yl)]hydrazino]ethyl-4-cyanothiazolidine bis-trifluoroacetate] | 2.23 ± 0.08 µM | 9.34% | 24.05% | 39.04% | 55.85% | – | –
14 | Cc1nc(NC(=O)CN2CCC(N(N)CC(=O)N3CSCC3C#N)CC2)sc1C (stereo not drawn) [compound 119, 3-[1-oxo-2-(1-(1-(2-oxo-2-(4,5-dimethylthiazole-2-yl)aminoethyl)piperidin-4-yl)) hydrazino]ethyl-4-cyanothiazolidine, tris-trifluoroacetate] | 0.185 ± 0.01 µM | – | – | – | 54.93% | – | –
15 | N#CC1CSCN1C(=O)CN(N)C1CCCCC1.O=C(O)C(F)(F)F (stereo not drawn) [Compound No. 21, 3-[1-Oxo-2-((1-Cyclohexyl)-hydrazino)]ethyl-4-cyano thiazolidine trifluoroacetate] | 2.01 ± 0.16 µM | – | – | – | 95.71% | – | –
16 | N#Cc1ccc(NC(=O)CN2CCC(N(N)CC(=O)N3CSCC3C#N)CC2)nc1 (stereo not drawn) [compound 120, 3-[1-oxo-2-(1-(1-(2-oxo-2(5-cyanopyridin-2-yl)aminoethyl)piperidin-4-yl))hydrazino]ethyl-4-cyanothiazolidine, tris-trifluoroacetate] | 0.09 ± 0.02 µM | – | – | – | 55.03% | – | –

From US20040106802A1, “Novel compounds and therapeutic uses thereof” (TORRENT PHARMACEUTICALS LTD., priority 2002, published 2004)
